Laboratory results from PMC12468313, “Use of Amplified Lewy Body Dementia Fibrils and Autoradiography to Characterize Binding of Radioligand Tg-1-90B to Alpha-Synuclein Fibrils in Postmortem Brain Tissue” (Cells, 2025).

What was measured:
[1] = target: T1, IVTris fibrils (recombinant Asyn PFF) (Homo sapiens, UniProt P37840); assay: [3H]Tg-1-90B saturation binding assay with IVTris fibrils; details: 250 nM fibrils
T1 construct: made in house
Procedure: (§1) IVTris fibrils were assembled in vitro by spontaneous nucleation in 20 mM Tris-HCl, pH 8.0, 100 mM NaCl buffer in a total volume of 1500 µL at 2 mg/mL monomer concentration. The incubation was carried out at 37 °C with continuous shaking at 1000 rpm in a Thermomixer (Eppendorf, Framingham, MA, USA) for 72 h. Amplified LBD fibrils were prepared as described in Dhavale et al. and case LBD1 amplified fibrils were used in this study. PD, disease-control and AD insoluble fraction (IF) tissue homogenate was prepared by sequential homogenization of dissected tissue gray matter in a series of detergents followed by centrifugation to obtain insoluble fraction. […]
(§2) A fixed concentration of binding substrates IVTris fibrils (250 nM), amplified LBD fibrils (50 nM), Aβ fibrils (150 nM), tau fibrils (150 nM), PD, AD or disease control homogenate (10 µg/mL) were incubated for 2 h at 37 °C with increasing concentrations of [^3H]Tg-1-90B in a reaction volume of 150 µL in a 96-well plate. […] Filters containing the bound ligand were mixed with 150 µL of Optiphase Supermix scintillation cocktail (PerkinElmer, Waltham, MA, USA) and counted following overnight incubation. […] The dissociation constant (Kd) and the maximal number of binding sites (Bmax) values were determined by fitting the data to the equation Y = Bmax × X/(X + Kd) by non-linear regression using Graphpad Prism software (version 7.0).

[2] = target: T2, amplified LBD fibrils (PDB 8FPT) alpha-synuclein (Homo sapiens, UniProt P37840); assay: [3H]Tg-1-90B saturation binding assay with amplified LBD fibrils; details: 50 nM fibrils
T2 construct: made in house
Procedure: as §1, §2

COc1ccc(/C=C/c2cc(-c3nccs3)on2)cc1 [Tg-1-90B]
Kd ([1]; 2 h 37 °C, one site saturable specific binding): 40.1 ± 1.9 nM
average Bmax, IVTris fibrils ([1]; per nmol Asyn): 22.3 ± 0.1 pmol/nmol
Kd ([2]; 2 h 37 °C): 17.5 nM
average Bmax, amplified LBD fibrils ([2]; per nmol Asyn): 20.6 ± 2.5 pmol/nmol
